pKd: −log10 of the molar value. Values after ≈ are worked out from the molar mass of the structure shown. Active and inactive are the calls of the source. No cut-off for these calls is given here.
Legend:
[1] = Ratio of MBC for bactericidal activity against Bacillus subtilis CMCC (B) 63501 to MIC for antibacterial activity against Bacillus subtilis CMCC (B) 63501; type: functional
[2] = Ratio of MBC for bactericidal activity against Enterococcus faecium ATCC 700221 to MIC for antibacterial activity against Enterococcus faecium ATCC 700221; type: functional
[3] = target: T1, Cell division protein FtsZ (Staphylococcus aureus) (UniProt P0A031); test: Induction of Staphylococcus aureus FtsZ polymerization expressed in Escherichia coli BL21 (DE3) assessed as increase in absorbance at 2 to 8 ug/ml in presence of GTP by microplate reader method; conditions: dose 2-8 µg/ml, DDE = dose-dependent effect
T1 sequence (whole entry): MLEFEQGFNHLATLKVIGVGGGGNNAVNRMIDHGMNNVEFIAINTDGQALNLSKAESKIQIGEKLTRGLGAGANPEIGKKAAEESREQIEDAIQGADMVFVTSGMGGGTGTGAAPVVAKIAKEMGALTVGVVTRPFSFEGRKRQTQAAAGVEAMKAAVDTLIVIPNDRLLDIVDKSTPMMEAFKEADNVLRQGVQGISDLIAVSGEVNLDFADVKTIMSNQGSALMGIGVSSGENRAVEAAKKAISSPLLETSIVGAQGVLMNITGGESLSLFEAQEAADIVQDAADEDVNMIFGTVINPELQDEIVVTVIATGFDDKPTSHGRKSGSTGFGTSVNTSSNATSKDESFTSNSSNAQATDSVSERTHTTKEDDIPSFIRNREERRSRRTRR

[4] = system: Staphylococcus aureus; test: Antibacterial activity against Staphylococcus aureus ATCC 29213 assessed as inhibition of bacterial growth incubated for 20 to 24 hrs by broth micro dilution method; type: functional; conditions: time 20-24 hrs
[5] = system: Staphylococcus aureus; test: Antibacterial activity against methicillin-resistant Staphylococcus aureus ATCC 43300 assessed as inhibition of bacterial growth incubated for 20 to 24 hrs by broth micro dilution method; type: functional; conditions: time 20-24 hrs
[6] = system: Staphylococcus aureus; test: Antibacterial activity against methicillin-resistant Staphylococcus aureus ATCC 33592 assessed as inhibition of bacterial growth incubated for 20 to 24 hrs by broth micro dilution method; type: functional; conditions: time 20-24 hrs
[7] = system: Staphylococcus aureus; test: Antibacterial activity against methicillin-resistant Staphylococcus aureus ATCC BAA-1720 assessed as inhibition of bacterial growth incubated for 20 to 24 hrs by broth micro dilution method; type: functional; conditions: time 20-24 hrs
[8] = system: Staphylococcus aureus; test: Antibacterial activity against vancomycin-intermediate Staphylococcus aureus Mu50 assessed as inhibition of bacterial growth incubated for 20 to 24 hrs by broth micro dilution method; type: functional; conditions: time 20-24 hrs
[9] = system: Staphylococcus epidermidis; test: Antibacterial activity against Staphylococcus epidermidis ATCC 12228 assessed as inhibition of bacterial growth incubated for 20 to 24 hrs by broth micro dilution method; type: functional; conditions: time 20-24 hrs
[10] = system: Bacillus subtilis; test: Antibacterial activity against Bacillus subtilis CMCC (B) 63501 assessed as inhibition of bacterial growth incubated for 20 to 24 hrs by broth micro dilution method; type: functional; conditions: time 20-24 hrs
[11] = system: Enterococcus faecium; test: Antibacterial activity against Enterococcus faecium ATCC 49624 assessed as inhibition of bacterial growth incubated for 20 to 24 hrs by broth micro dilution method; type: functional; conditions: time 20-24 hrs
[12] = system: Enterococcus faecalis; test: Antibacterial activity against Enterococcus faecalis ATCC 29212 assessed as inhibition of bacterial growth incubated for 20 to 24 hrs by broth micro dilution method; type: functional; conditions: time 20-24 hrs
[13] = system: Enterococcus faecium; test: Antibacterial activity against vancomycin resistant Enterococcus faecium ATCC 700221 assessed as inhibition of bacterial growth incubated for 20 to 24 hrs by broth micro dilution method; type: functional; conditions: time 20-24 hrs
[14] = system: Enterococcus faecium; test: Antibacterial activity against vancomycin-resistant Enterococcus faecium clinical isolate assessed as inhibition of bacterial growth incubated for 20 to 24 hrs by broth micro dilution method; type: functional; conditions: time 20-24 hrs
[15] = system: Escherichia coli; test: Antibacterial activity against Escherichia coli ATCC 25922 assessed as inhibition of bacterial growth incubated for 20 to 24 hrs by broth micro dilution method; type: functional; conditions: time 20-24 hrs
[16] = system: Escherichia coli; test: Antibacterial activity against Escherichia coli ATCC 8739 assessed as inhibition of bacterial growth incubated for 20 to 24 hrs by broth micro dilution method; type: functional; conditions: time 20-24 hrs
[17] = system: Escherichia coli; test: Antibacterial activity against NDM-1 expressing Escherichia coli ATCC BAA2469 assessed as inhibition of bacterial growth incubated for 20 to 24 hrs by broth micro dilution method; type: functional; conditions: time 20-24 hrs
[18] = system: Acinetobacter baumannii; test: Antibacterial activity against multi-drug resistant Acinetobacter baumannii ATCC 19606 assessed as inhibition of bacterial growth incubated for 20 to 24 hrs by broth micro dilution method; type: functional; conditions: time 20-24 hrs
[19] = system: Pseudomonas aeruginosa; test: Antibacterial activity against […] Pseudomonas aeruginosa ATCC 27853 assessed as inhibition of bacterial growth incubated for 20 to 24 hrs by broth micro dilution method; type: functional; conditions: time 20-24 hrs
[20] = system: Klebsiella pneumoniae; test: Antibacterial activity against NDM-1 expressing Klebsiella pneumoniae ATCC BAA 2470 assessed as inhibition of bacterial growth incubated for 20 to 24 hrs by broth micro dilution method; type: functional; conditions: time 20-24 hrs
[21] = system: Bacillus subtilis; test: Bactericidal activity against Bacillus subtilis CMCC (B) 63501 assessed as inhibition of bacterial growth incubated for 24 hrs by resazurin dye based microtiter plate assay; type: functional
[22] = system: Staphylococcus aureus; test: Bactericidal activity against Staphylococcus aureus ATCC 29213 assessed as inhibition of bacterial growth incubated for 24 hrs by resazurin dye based microtiter plate assay; type: functional
[23] = system: Staphylococcus aureus; test: Bactericidal activity against Staphylococcus aureus ATCC 43300 assessed as inhibition of bacterial growth incubated for 24 hrs by resazurin dye based microtiter plate assay; type: functional
[24] = system: Enterococcus faecium; test: Bactericidal activity against Enterococcus faecium ATCC 700221 assessed as inhibition of bacterial growth incubated for 24 hrs by resazurin dye based microtiter plate assay; type: functional
[25] = Ratio of MBC for bactericidal activity against Staphylococcus aureus ATCC 29213 to MIC for antibacterial activity against Staphylococcus aureus ATCC 29213; type: functional
[26] = Ratio of MBC for bactericidal activity against Staphylococcus aureus ATCC 43300 to MIC for antibacterial activity against Staphylococcus aureus ATCC 43300; type: functional
[27] = system: Staphylococcus aureus; test: Antibacterial activity against methicillin-resistant Staphylococcus aureus ATCC BAA41 assessed as fractional inhibitory concentration index incubated for 24 hrs by checker board assay; type: functional
[28] = system: Staphylococcus aureus; test: Antibacterial activity against methicillin-resistant Staphylococcus aureus ATCC BAA41 assessed as inhibition of bacterial growth incubated for 24 hrs by checker board assay; type: functional
[29] = system: Staphylococcus aureus; test: Synergistic antibacterial activity against methicillin-resistant Staphylococcus aureus ATCC BAA41 assessed as inhibition of bacterial growth incubated for 24 hrs in presence of methicillin by checker board assay; type: functional
[30] = system: Bacillus subtilis; test: Induction of morphological changes in Bacillus subtilis CMCC (B) 63501 assessed as elongation of bacterial cell at 0.5 times MIC for 4 hrs (reference value: 3 to 5 um) by microscopic analysis; type: functional
[31] = system: Staphylococcus aureus; test: Induction of morphological changes in Staphylococcus aureus ATCC 29213 assessed as enlargement of cell size at 0.5 times MIC for 4 hrs by microscopic analysis; type: functional, organism-based
[32] = target: T1, Cell division protein FtsZ (Staphylococcus aureus); test: Binding affinity to Staphylococcus aureus FtsZ assessed as equilibrium binding constant by isothermal titration calorimetry
[33] = target: T1, Cell division protein FtsZ (Staphylococcus aureus); test: Binding affinity to Staphylococcus aureus FtsZ assessed as increase in alpha helix structure at 8 ug/ml incubated for 30 mins by circular dichroism method; conditions: dose 8.0 µg/ml
[34] = target: T1, Cell division protein FtsZ (Staphylococcus aureus); test: Binding affinity to Staphylococcus aureus FtsZ assessed as decrease in beta turn structure at 8 ug/ml incubated for 30 mins by circular dichroism method; conditions: dose 8.0 µg/ml
[35] = target: T1, Cell division protein FtsZ (Staphylococcus aureus); test: Binding affinity to Staphylococcus aureus FtsZ assessed as decrease in random coil structure at 8 ug/ml incubated for 30 mins by circular dichroism method; conditions: dose 8.0 µg/ml
[36] = target: T1, Cell division protein FtsZ (Staphylococcus aureus); test: Binding affinity to Staphylococcus aureus FtsZ assessed as decrease in other structure at 8 ug/ml incubated for 30 mins by circular dichroism method; conditions: dose 8.0 µg/ml
[37] = target: T2, Cell division protein FtsZ (Staphylococcus aureus, UniProt P0A031); test: Binding affinity to Staphylococcus aureus FtsZ assessed as dissociation constant by isothermal titration calorimetry
T2 sequence (P0A031 whole entry): T1 sequence (whole entry)

[38] = system: Staphylococcus aureus; test: Induction of drug resistance against Staphylococcus aureus ATCC 29213 assessed as fold increase in MIC after 16 passage; type: functional

SMILES	Ratio [1]	Ratio [2]	Activity [3]	MIC [4]	MIC [5]	MIC [6]	MIC [7]	MIC [8]	MIC [9]	MIC [10]	MIC [11]	MIC [12]	MIC [13]	MIC [14]	MIC [15]	MIC [16]	MIC [17]	MIC [18]	MIC [19]	MIC [20]	also measured
CN(C)c1ccc(/C=C/c2cc(N3CCCCC3)c3ccccc3[n+]2C)cc1.[I-]	2	4	Dde	1 µg/mL	1 µg/mL	1 µg/mL	2 µg/mL	2 µg/mL	1 µg/mL	2 µg/mL	8 µg/mL	4 µg/mL	1 µg/mL	4 µg/mL	16 µg/mL	64 µg/mL	64 µg/mL	64 µg/mL	> 64 µg/mL	> 64 µg/mL	MBC [21]: 4 µg/mL; MBC [22]: 8 µg/mL; MBC [23]: 4 µg/mL; MBC [24]: 4 µg/mL; Ratio [25]: >4; Ratio [26]: 4; fractional inhibitory concentration index (FICI) [27]: 0.25; MIC [28]: 16 µg/mL; MIC [29]: 2 µg/mL; Activity [30]: 30 um; Activity [31]: Active; Kb [32]: 2.02 10^5/M; Activity [33]: Active; Activity [34]: Active; Activity [35]: Active; Activity [36]: Active; pKd [37]: 5.60
CCCCCNc1cc(/C=C/c2ccc(N(C)C)cc2)[n+](C)c2ccccc12.[I-]	1	2	Dde	2 µg/mL	2 µg/mL	2 µg/mL	1 µg/mL	4 µg/mL	1 µg/mL	4 µg/mL	8 µg/mL	4 µg/mL	4 µg/mL	4 µg/mL	64 µg/mL	> 64 µg/mL	> 64 µg/mL	> 64 µg/mL	> 64 µg/mL	> 64 µg/mL	MBC [21]: 4 µg/mL; MBC [22]: 8 µg/mL; MBC [23]: 8 µg/mL; MBC [24]: 8 µg/mL; Ratio [25]: 4; Ratio [26]: 4; fractional inhibitory concentration index (FICI) [27]: 0.375; MIC [28]: 4 µg/mL; MIC [29]: 0.5 µg/mL; Activity [30]: 30 um; Activity [31]: Active; Kb [32]: 2.01 10^5/M; Activity [33]: Active; Activity [34]: Active; Activity [35]: Active; Activity [36]: Active; pKd [37]: 5.62
CO[C@H]1/C=C/O[C@@]2(C)Oc3c(C)c(O)c4c(O)c(c(/C=N/N5CCN(C)CC5)c(O)c4c3C2=O)NC(=O)/C(C)=C\C=C\[C@H](C)[C@H](O)[C@@H](C)[C@@H](O)[C@@H](C)[C@H](OC(C)=O)[C@@H]1C [RIFAMPIN]				0.5 µg/mL (≈ 0.608 µM)	< 0.125 µg/mL	> 64 µg/mL	< 0.125 µg/mL	0.125 µg/mL (≈ 0.152 µM)	1 µg/mL (≈ 1.22 µM)	0.125 µg/mL (≈ 0.152 µM)	< 0.125 µg/mL	0.125 µg/mL (≈ 0.152 µM)	< 0.125 µg/mL	8 µg/mL (≈ 9.72 µM)	2 µg/mL (≈ 2.43 µM)	8 µg/mL (≈ 9.72 µM)	> 64 µg/mL	> 64 µg/mL	> 64 µg/mL	> 64 µg/mL	fold change (FC) [38]: 4096

— ChEMBL document CHEMBL5154863, “Design and synthesis of quinolinium-based derivatives targeting FtsZ for antibacterial evaluation and mechanistic study” (Eur J Med Chem, 2022)
